We go through one compound from ChEMBL document CHEMBL4732150 (J Med Chem, 2021).

One may read the IC50 as the concentration that gives 50% inhibition. The term Cmax denotes the maximum level reached in the sampled fluid or tissue. By CL/F is commonly meant clearance divided by bioavailability, as obtained after extravascular dosing. The bioavailability is the share of a dose that reaches the circulation, judged against a reference dose that is usually intravenous. In general, half-life refers to the time needed for the level to fall by half in the phase considered. Broadly, the Tmax is the time at which the peak concentration occurs.

Bounds are passed on as bounds.

The nature of series [1]: Drug metabolism in CD1 mouse liver microsomes assessed as 3,3-dideuterio-N-[4-methoxy-2-[methyl-[2-(methylamino)ethyl]amino]-5-[[4-[1-(trideuteriomethyl)indol-3-yl]pyrimidin-2-yl]amino]phenyl]prop-2-enamide metabolite formation preincubated for 10 mins under shaking condition followed by NADPH generating system addition and measured up to 60 mins by LC-MS/MS analysis. The class given is ADME, Microsome. The note with it: 1 h, time <=70 min. For orientation: Liver microsomes are vesicles of endoplasmic reticulum, rich in cytochrome P450 enzymes.

The nature of series [2]: Intrinsic clearance in Sprague-Dawley rat liver microsomes preincubated for 10 mins under shaking condition followed by NADPH generating system addition and measured up to 60 mins by LC-MS/MS analysis. The note with it: 1 h, time <=70 min. The class given is ADME, Microsome.
A further series concerns the target Cytochrome P450 2C9 (Homo sapiens, UniProt P11712). The series can be described thus: Inhibition of CYP2C9 in human liver microsomes using diclofenac as substrate preincubated for 10 mins in presence of NADPH generating system followed by substrate addition and measured after 10 mins by LC-MS/MS analysis. The class given is ADME.
Series [3] can be described thus: Toxicity in Balb/c nude mouse xenografted with human NCI-H1975 cells harboring EGFR L858R/T790M mutant assessed as change in body weight at 3 to 5 mg/kg, po QD administered via gavage for 24 days and measured twice weekly. In kind it is organism-based. The note with it: in vivo, 576 h, dose 3-5 mg/kg, time 24 day. On the technique in general: A xenograft is tissue or cells of one species grown in another, often human tumour cells in immunodeficient mice.

The nature of series [4]: Cmax in Sprague-Dawley rat at 2 mg/kg, IG administered as single dose and measured upto 24 hrs by LC-MS/MS analysis. Set-up: route […], dose 2 mg/kg, time <=24. The note with it: in vivo, po. The class given is ADME, organism-based.
The nature of series [5]: in vivo. The note with it: Sprague-Dawley, rat, po, 6 mg/kg.
Series [6] in a line: Drug metabolism in Sprague-Dawley rat liver microsomes assessed as 3,3-dideuterio-N-[2-(2-dimethylaminoethylamino)-4-methoxy-5-[[4-[1-(trideuteriomethyl)indol-3-yl]pyrimidin-2-yl]amino]phenyl]prop-2-enamide metabolite formation preincubated for 10 mins under shaking condition followed by NADPH generating system addition and measured up to 60 mins by LC-MS/MS analysis. The note with it: 1 h, time <=70 min. The class given is ADME, Microsome.

The nature of series [7]: Oral bioavailability in Sprague-Dawley rat at 12 mg/kg, IG administered as single dose and measured upto 24 hrs by LC-MS/MS analysis. In kind it is ADME, organism-based. The note with it: in vivo.
A short description of a further series: in vitro. The note with it: human, liver microsomes.
Series [8] is described as follows: in vivo. The note with it: Sprague-Dawley, rat, po, 12 mg/kg.
Series [9] can be described thus: in vivo. The note with it: Sprague-Dawley, rat, iv, 2 mg/kg.
Series [10] is described as follows: Tmax in Sprague-Dawley rat at 2 mg/kg, IG administered as single dose and measured upto 24 hrs by LC-MS/MS analysis. In kind it is ADME, organism-based. The note with it: in vivo, po.
Series [11] in a line: Cmax in Sprague-Dawley rat assessed as AZ5104-D2 at 6 mg/kg/day, IG administered for 7 consecutive days by LC-MS/MS analysis. The note with it: in vivo, po, 168 h. The class given is ADME, organism-based. Also noted: route […], dose 6 mg/kg/day, time 7 day.
A short description of series [12]: Drug metabolism in Sprague-Dawley rat liver microsomes assessed as 3,3-dideuterio-N-[4-methoxy-2-[methyl-[2-(methylamino)ethyl]amino]-5-[[4-[1-(trideuteriomethyl)indol-3-yl]pyrimidin-2-yl]amino]phenyl]prop-2-enamide metabolite formation preincubated for 10 mins under shaking condition followed by NADPH generating system addition and measured up to 60 mins by LC-MS/MS analysis. The class given is ADME, Microsome. The note with it: 1 h, time <=70 min.

Series [13] is described as follows: in vivo. The note with it: Sprague-Dawley, rat, po, 2 mg/kg.
A short description of series [14]: Drug metabolism in cynomolgus monkey liver microsomes assessed as 3,3-dideuterio-N-[4-methoxy-2-(methylamino)-5-[[4-[1-(trideuteriomethyl)indol-3-yl]pyrimidin-2-yl]amino]phenyl]prop-2-enamide metabolite formation preincubated for 10 mins under shaking condition followed by NADPH generating system addition and measured up to 60 mins by LC-MS/MS analysis. In kind it is ADME, Macaca fascicularis, Microsome. The note with it: 1 h, time <=70 min.

Series [15] in a line: Half life in cynomolgus monkey liver microsomes preincubated for 10 mins under shaking condition followed by NADPH generating system addition and measured up to 60 mins by LC-MS/MS analysis.
A short description of series [16]: Half life in CD1 mouse liver microsomes preincubated for 10 mins under shaking condition followed by NADPH generating system addition and measured up to 60 mins by LC-MS/MS analysis.
A further series has as its target T1, Cytochrome P450 2C8 (Homo sapiens, UniProt P10632).
T1 sequence (P10632 whole entry): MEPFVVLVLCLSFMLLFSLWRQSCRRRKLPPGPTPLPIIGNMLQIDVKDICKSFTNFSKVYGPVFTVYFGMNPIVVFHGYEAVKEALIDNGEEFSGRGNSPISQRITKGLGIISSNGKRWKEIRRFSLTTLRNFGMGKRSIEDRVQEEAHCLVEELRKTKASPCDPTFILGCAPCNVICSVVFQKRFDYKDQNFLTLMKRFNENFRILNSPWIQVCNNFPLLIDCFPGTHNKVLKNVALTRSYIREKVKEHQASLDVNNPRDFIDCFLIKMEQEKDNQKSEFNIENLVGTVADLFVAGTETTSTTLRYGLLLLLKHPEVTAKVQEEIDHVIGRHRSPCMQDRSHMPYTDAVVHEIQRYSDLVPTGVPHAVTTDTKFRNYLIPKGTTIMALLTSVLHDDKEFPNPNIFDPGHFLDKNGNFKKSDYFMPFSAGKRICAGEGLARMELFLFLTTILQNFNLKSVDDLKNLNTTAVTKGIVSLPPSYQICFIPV
As to the kind of experiment: Inhibition of CYP2C8 in human liver microsomes using amodiaquine as substrate preincubated for 10 mins in presence of NADPH generating system followed by substrate addition and measured after 10 mins by LC-MS/MS analysis. In kind it is ADME.

Another series concerns the target T2, Cytochrome P450 2B6 (Homo sapiens, UniProt P20813).
T2 sequence (P20813 whole entry): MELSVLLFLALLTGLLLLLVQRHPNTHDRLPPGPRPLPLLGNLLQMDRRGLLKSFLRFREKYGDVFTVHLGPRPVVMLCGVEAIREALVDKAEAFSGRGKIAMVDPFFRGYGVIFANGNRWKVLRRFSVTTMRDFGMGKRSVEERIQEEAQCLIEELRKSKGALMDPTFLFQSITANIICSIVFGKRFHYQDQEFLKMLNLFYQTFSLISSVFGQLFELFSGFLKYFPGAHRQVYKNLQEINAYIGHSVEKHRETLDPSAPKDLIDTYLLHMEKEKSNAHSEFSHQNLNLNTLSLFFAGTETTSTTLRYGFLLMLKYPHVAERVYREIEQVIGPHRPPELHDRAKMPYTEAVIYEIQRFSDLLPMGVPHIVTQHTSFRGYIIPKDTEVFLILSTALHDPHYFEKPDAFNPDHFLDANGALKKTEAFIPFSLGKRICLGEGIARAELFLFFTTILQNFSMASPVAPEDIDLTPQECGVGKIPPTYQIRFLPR
The series can be described thus: Inhibition of CYP2B6 in human liver microsomes using bupropion as substrate preincubated for 10 mins in presence of NADPH generating system followed by substrate addition and measured after 10 mins by LC-MS/MS analysis. In kind it is ADME.

The nature of series [17]: Drug metabolism in cynomolgus monkey liver microsomes assessed as 3,3-dideuterio-N-[4-methoxy-2-[methyl-[2-(methylamino)ethyl]amino]-5-[[4-[1-(trideuteriomethyl)indol-3-yl]pyrimidin-2-yl]amino]phenyl]prop-2-enamide metabolite formation preincubated for 10 mins under shaking condition followed by NADPH generating system addition and measured up to 60 mins by LC-MS/MS analysis. The note with it: 1 h, time <=70 min. In kind it is ADME, Macaca fascicularis, Microsome.

Sequence of Cytochrome P450 2C9 (P11712 whole entry): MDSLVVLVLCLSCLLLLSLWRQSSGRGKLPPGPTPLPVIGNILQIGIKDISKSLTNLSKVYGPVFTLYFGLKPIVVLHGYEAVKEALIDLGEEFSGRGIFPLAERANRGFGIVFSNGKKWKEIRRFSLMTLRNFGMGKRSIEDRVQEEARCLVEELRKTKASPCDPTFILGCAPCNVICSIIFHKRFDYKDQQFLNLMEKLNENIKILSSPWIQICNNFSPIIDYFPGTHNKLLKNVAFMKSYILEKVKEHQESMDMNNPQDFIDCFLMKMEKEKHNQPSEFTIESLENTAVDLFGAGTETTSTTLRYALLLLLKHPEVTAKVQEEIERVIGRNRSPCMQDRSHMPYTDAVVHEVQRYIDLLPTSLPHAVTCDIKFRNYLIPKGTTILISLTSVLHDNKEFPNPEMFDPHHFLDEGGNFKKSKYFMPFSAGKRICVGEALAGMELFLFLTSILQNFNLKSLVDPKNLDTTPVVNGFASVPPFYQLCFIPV

`CS(=O)(=O)O.[2H]C([2H])=CC(=O)Nc1cc(Nc2nccc(-c3cn(C([2H])([2H])[2H])c4ccccc34)n2)c(OC)cc1N(C)CCN(C)C`: the Drug metabolism entry in [1], in series [6], in series [12], in [14] and in [17] was “Metabolite_Detected” throughout. For the same compound, the CLint in series [2] came to 40 µL/min/mg. The figures for the IC50 on Cytochrome P450 2C9, on Cytochrome P450 2C8 and at Cytochrome P450 2B6 were over 50 µM, 29.3 µM and over 50 µM, respectively. In addition, the Activity entry in [3] was “Non-Toxic”. In addition, the Cmax in series [4] was 46.7 nM; in [11] it was 0.395 nM. The compound also showed an apparent clearance CL/F at 168 h in “in vivo [5]” of 325 mL/min/kg. This compound also registered a bioavailability in series [7] of 43%. The half-life at 1 h was 2.4 h in “in vitro”, 0.427 h in [15] and 0.395 h in series [16]. Besides, the values for the half-life at 24 h in “in vivo [8]”, in “in vivo [9]” and in the series “in vivo [13]” were 4.04 h, 5.4 h and 3.76 h, respectively. For the same compound, in [10], the Tmax was 4.17 h.
